Results taken from publication PMC2443152, “Molecular evolution of B6 enzymes: Binding of pyridoxal-5'-phosphate and Lys41Arg substitution turn ribonuclease A into a model B6 protoenzyme” (BMC Biochemistry, 2008).
Changes are numbered by the printed parent chain. Where two headings read alike, the source gives them in different places.

Experiments:
[1] = target: T1, bovine pancreatic ribonuclease A (RNase) (Bos taurus, UniProt P61823, K67R); experiment: intrinsic (tyrosine) fluorescence quenching titration, nonlinear regression; format: binding
T1 construct: gene RNASE1; mature RNase A; recombinant from pET22b(+) NdeI/HindIII in E. coli BL21 (wild type also from bovine pancreas, Sigma type II); no tag mentioned
T1 sequence (P61823 27-150 K67R): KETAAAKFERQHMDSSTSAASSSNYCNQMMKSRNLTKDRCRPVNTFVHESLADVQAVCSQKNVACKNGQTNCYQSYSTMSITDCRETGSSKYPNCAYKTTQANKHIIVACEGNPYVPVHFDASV
From the text: (§1) intrinsic (tyrosine) fluorescence quenching titration, nonlinear regression on bovine pancreatic ribonuclease A (RNase)

[2] = target: T2, bovine pancreatic ribonuclease A (RNase) (Bos taurus, UniProt P61823); experiment: as above; format: binding; settings: read-out: Wild-type
T2 construct: gene RNASE1; mature RNase A; recombinant from pET22b(+) NdeI/HindIII in E. coli BL21 (wild type also from bovine pancreas, Sigma type II); no tag mentioned
T2 sequence (P61823 27-150): T1 sequence (P61823 27-150 K67R) with R41K
From the text: as §1

| Structure (SMILES) | Kd ([1]; read-out: K41R) | Kd [2] | Kd ([1]; read-out: Wild-type) |
| --- | --- | --- | --- |
| Cc1ncc(COP(=O)(O)O)c(C=O)c1O [PLP] | 140 ± 10 µM | 120 ± 5 µM | – |
| Cc1ncc(COP(=O)(O)O)c(CN)c1O [PMP] | 107 ± 3 µM | 106 ± 5 µM | – |
| Cc1ncc(COP(=O)(O)O)c(CN[C@H](C)C(=O)O)c1O [PPL-D-alanine] | 40 ± 3 µM | 45 ± 1 µM | – |
| Cc1ncc(COP(=O)(O)O)c(CN[C@@H](C)C(=O)O)c1O [PPL-L-alanine] | – | 23 ± 1 µM | 23 ± 1 µM |
